Assay results as given in patent US9493478B2, “Fused ring compound containing furan or salt thereof and pharmaceutical composition comprising same” (YUHAN CORPORATION, priority 2012, dated 2016).

Columns and labels:
Assay type in all cases: biochemical
PI3Kγ (p120γ)(h) = PI3Kγ (p120γ)(h) (Homo sapiens, UniProt P48736); assay: Assay for phosphatidylinositol 3-kinase gamma (PI3Kγ) activity, PI3K-HTRF kit; conditions: TR-FRET; enzyme 1.45 μg/ml, 10 μM PIP2, 10 μM ATP
Procedure, shortened: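 Recombinant PI3Kγ (1.45 μg/ml final) preincubated ~10 min with compound, then reacted with 10 μM PIP2 and 10 μM ATP for 90 min at room temperature. PIP3 detected by HTRF (biotin-PIP3/Eu-PH domain/APC), 665/620 nm ratio after 6 h; IC50 from inhibition relative to controls.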

PI3K β (p110β/p85α)(h) = PI3K β (p110β/p85α)(h) (Homo sapiens, UniProt P42338); assay: Assay for phosphatidylinositol 3-kinase beta (PI3Kβ) activity, PI3K-HTRF kit; conditions: TR-FRET; enzyme 0.725 μg/ml, 10 μM PIP2, 10 μM ATP
Sequence of PI3K β (p110β/p85α)(h) (P42338 whole entry): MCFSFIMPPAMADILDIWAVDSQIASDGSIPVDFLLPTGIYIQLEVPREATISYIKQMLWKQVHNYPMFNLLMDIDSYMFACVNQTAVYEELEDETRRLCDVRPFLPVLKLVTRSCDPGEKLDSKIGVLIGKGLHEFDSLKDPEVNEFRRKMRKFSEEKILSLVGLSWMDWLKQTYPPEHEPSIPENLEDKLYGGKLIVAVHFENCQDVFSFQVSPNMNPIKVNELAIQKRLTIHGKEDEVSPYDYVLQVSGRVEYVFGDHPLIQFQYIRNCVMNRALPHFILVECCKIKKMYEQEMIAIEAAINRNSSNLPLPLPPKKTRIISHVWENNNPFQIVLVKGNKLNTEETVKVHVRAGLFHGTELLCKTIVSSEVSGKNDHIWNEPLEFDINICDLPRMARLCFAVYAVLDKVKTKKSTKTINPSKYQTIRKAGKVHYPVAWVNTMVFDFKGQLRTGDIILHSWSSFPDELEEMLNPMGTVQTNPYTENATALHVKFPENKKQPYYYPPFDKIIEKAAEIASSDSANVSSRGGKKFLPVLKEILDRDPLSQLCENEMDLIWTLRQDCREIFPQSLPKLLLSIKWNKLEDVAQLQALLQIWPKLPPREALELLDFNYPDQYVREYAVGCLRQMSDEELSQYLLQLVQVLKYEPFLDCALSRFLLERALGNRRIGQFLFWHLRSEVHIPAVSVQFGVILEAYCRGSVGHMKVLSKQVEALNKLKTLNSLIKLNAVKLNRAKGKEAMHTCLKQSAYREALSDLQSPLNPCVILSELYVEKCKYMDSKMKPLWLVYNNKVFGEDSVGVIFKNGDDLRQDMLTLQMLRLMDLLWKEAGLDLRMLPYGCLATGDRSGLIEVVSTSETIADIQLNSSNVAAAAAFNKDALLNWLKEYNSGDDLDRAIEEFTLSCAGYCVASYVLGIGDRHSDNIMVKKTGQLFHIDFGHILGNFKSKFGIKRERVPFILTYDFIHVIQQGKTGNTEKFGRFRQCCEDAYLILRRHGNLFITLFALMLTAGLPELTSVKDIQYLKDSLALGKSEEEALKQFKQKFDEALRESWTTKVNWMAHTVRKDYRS
Sequence of PI3K β (p110β/p85α)(h) (P27986 whole entry partner): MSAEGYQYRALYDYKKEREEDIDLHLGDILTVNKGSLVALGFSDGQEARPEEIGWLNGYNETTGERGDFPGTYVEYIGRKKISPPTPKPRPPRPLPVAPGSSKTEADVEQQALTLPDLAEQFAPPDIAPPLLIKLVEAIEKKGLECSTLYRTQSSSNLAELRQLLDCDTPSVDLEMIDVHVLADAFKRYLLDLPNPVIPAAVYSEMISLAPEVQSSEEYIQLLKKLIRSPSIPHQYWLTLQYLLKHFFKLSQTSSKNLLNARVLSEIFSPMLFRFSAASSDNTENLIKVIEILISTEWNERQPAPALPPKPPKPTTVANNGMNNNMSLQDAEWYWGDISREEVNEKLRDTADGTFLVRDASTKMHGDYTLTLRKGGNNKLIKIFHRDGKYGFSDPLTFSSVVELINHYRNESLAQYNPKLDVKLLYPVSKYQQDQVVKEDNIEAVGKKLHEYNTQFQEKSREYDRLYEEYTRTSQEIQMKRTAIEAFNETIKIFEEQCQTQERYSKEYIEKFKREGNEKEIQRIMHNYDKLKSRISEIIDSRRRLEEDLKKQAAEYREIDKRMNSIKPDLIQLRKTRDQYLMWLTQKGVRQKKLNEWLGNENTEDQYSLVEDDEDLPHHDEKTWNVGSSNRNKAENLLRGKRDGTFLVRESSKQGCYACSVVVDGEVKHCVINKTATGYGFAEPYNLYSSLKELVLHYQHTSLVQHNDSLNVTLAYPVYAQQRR

PI3Kδ (p110δ/p85α)(h) = PI3Kδ (p110δ/p85α)(h) (Homo sapiens, UniProt O00329); assay: Assay for phosphatidylinositol 3-kinase delta (PI3Kδ) activity, PI3K-HTRF kit; conditions: TR-FRET; enzyme 0.725 μg/ml, 10 μM PIP2, 10 μM ATP
Sequence of PI3Kδ (p110δ/p85α)(h) (O00329 whole entry): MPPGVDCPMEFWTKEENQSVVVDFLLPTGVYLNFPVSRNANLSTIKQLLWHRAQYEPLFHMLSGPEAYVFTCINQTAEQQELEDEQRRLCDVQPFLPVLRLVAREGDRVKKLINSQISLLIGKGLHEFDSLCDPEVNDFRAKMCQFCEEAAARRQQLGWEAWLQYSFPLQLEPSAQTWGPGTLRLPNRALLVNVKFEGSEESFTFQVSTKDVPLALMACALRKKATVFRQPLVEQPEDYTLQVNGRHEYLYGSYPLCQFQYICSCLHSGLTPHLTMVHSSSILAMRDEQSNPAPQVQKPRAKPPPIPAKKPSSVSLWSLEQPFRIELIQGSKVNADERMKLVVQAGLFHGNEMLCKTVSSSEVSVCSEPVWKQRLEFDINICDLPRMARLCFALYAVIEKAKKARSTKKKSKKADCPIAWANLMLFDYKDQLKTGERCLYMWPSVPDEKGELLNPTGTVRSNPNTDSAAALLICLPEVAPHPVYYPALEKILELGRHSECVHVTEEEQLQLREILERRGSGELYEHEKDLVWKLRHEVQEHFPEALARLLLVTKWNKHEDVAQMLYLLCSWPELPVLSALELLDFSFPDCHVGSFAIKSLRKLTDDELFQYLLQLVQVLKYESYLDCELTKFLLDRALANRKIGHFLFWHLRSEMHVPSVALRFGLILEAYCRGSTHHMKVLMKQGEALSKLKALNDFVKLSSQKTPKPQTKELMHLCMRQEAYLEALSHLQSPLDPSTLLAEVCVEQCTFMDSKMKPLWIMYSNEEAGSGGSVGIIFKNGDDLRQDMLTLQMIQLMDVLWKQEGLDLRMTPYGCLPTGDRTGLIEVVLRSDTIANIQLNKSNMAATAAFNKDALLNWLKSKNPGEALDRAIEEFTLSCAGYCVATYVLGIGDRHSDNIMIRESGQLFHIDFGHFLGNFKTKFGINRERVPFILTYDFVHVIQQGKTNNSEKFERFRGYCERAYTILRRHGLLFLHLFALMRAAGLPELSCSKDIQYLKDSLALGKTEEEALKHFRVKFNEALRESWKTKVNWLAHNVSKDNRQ
Sequence of PI3Kδ (p110δ/p85α)(h) (P27986 whole entry partner): as the sequence (P27986 whole entry partner) above

PI3Kα (p110α/p85α)(h) = PI3Kα (p110α/p85α)(h) (Homo sapiens, UniProt P42336); assay: Assay for phosphatidylinositol 3-kinase alpha (PI3Kα) activity, PI3K-HTRF kit; conditions: TR-FRET; enzyme 0.3625 μg/ml, 10 μM PIP2, 10 μM ATP
Sequence of PI3Kα (p110α/p85α)(h) (P42336 whole entry): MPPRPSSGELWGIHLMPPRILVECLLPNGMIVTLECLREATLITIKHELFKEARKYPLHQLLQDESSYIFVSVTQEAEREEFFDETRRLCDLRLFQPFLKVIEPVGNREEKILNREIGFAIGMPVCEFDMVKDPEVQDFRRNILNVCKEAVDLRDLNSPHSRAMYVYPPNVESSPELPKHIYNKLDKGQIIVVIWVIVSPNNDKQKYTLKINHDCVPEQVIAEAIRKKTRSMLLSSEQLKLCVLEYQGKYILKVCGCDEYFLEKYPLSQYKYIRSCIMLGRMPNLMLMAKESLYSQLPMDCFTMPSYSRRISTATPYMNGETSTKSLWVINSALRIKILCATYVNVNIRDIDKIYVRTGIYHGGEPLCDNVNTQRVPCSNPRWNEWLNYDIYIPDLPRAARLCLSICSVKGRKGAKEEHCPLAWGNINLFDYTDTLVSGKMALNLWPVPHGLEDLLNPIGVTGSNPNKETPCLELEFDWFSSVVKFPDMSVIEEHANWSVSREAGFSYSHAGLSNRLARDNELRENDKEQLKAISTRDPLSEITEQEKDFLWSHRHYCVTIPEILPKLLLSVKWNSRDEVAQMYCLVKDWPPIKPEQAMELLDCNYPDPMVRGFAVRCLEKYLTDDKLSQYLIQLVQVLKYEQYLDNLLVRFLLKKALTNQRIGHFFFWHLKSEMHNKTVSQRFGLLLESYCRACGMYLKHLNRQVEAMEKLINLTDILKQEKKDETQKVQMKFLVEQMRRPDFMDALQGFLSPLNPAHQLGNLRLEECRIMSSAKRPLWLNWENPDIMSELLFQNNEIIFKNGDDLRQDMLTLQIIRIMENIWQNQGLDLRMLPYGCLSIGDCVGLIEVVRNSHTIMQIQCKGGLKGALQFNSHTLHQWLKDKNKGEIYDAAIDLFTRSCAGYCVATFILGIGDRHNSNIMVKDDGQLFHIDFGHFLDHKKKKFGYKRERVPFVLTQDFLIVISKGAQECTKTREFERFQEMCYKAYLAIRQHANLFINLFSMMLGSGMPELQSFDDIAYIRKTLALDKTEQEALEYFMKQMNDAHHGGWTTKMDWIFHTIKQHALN
Sequence of PI3Kα (p110α/p85α)(h) (P27986 whole entry partner): as the sequence (P27986 whole entry partner) above

Sequence of PI3Kγ (p120γ)(h) (P48736 whole entry, the tested form may be a part): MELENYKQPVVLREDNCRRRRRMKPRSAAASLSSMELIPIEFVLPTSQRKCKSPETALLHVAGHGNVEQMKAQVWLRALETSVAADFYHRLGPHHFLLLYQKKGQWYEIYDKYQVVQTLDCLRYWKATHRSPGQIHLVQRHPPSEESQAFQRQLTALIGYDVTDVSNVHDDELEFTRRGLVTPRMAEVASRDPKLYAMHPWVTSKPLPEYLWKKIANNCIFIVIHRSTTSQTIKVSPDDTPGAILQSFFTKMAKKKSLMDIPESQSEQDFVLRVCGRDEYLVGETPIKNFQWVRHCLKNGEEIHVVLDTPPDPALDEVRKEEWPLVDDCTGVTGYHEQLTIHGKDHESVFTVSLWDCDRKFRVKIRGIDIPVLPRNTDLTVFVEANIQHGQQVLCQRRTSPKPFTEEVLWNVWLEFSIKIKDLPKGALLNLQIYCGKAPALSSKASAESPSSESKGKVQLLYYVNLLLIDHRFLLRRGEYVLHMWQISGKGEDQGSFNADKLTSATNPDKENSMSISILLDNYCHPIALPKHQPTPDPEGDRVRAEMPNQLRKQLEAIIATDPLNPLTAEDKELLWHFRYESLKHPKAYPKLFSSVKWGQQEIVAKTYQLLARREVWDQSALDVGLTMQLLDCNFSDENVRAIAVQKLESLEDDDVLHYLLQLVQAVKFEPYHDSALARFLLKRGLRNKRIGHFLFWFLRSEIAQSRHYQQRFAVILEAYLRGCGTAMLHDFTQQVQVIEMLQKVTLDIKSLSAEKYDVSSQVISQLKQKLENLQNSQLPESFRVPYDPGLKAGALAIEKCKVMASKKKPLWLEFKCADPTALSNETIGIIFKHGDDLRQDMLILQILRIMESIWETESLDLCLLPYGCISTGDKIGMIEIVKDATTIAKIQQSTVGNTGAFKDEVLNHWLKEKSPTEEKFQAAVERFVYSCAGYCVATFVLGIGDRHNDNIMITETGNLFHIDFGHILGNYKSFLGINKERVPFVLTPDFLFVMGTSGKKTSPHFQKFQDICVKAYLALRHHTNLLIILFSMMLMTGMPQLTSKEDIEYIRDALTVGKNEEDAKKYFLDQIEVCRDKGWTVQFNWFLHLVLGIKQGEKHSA

SMILES	IC50 (PI3Kγ (p120γ)(h))	IC50 (PI3K β (p110β/p85α)(h))	IC50 (PI3Kδ (p110δ/p85α)(h))	IC50 (PI3Kα (p110α/p85α)(h))
COC(=O)c1cccc(C#Cc2cncc3cc(/C=C4\SC(=O)NC4=O)oc23)c1 [Example 542, (Z)-Methyl 3-([2-{(2,4-dioxothiazolidin-5-ylidene)methyl}furo[3,2-c]pyridin-7-yl]ethynyl)benzoate]	24 nM	> 10000 nM	1270 nM	3 nM
CC(C)NS(=O)(=O)c1c(Cl)cc(-c2cncc3cc(/C=C4\SC(=S)NC4=O)oc23)cc1Cl [Example 345, (Z)-2,6-Dichloro-N-isopropyl-4-[2-{(4-oxo-2-thioxothiazolidin-5-ylidene)methyl}furo[3,2-c]pyridin-7-yl]benzenesulfonamide]	4 nM	3860 nM	89 nM	11 nM
CS(=O)(=O)c1ccc(-c2cncc3cc(/C=C4\SC(=O)NC4=O)oc23)cc1 [Example 40, (Z)-5-([7-{4-(Methylsulfonyl)phenyl}furo[3,2-c]pyridin-2-yl]methylene)thiazolidine-2,4-dione]	28 nM	177 nM	590 nM	8 nM
O=C1NC(=O)/C(=C/c2cc3cncc(-c4ccc(O)nc4)c3o2)S1 [Example 11, (Z)-5-[{7-(6-Hydroxypyridin-3-yl)furo[3,2-c]pyridin-2-yl}methylene]thiazolidine-2,4-dione]	15 nM	48 nM	168 nM	8 nM
O=C1NC(=O)/C(=C/c2cc3cncc(C#Cc4ccccc4C(F)(F)F)c3o2)S1 [Example 526]	23 nM	1210 nM	33 nM	6 nM
COc1ccccc1NC(=O)c1cncc2cc(/C=C3\SC(=O)NC3=O)oc12 [Example 412, (Z)-2-{(2,4-Dioxothiazolidin-5-ylidene)methyl}-N-(2-methoxyphenyl)furo[3,2-c]pyridine-7-carboxamide]	182 nM	869 nM	205 nM	17 nM
O=C1NC(=O)/C(=C/c2cc3cncc(C#Cc4ccsc4)c3o2)S1 [Example 528, (Z)-5-[{7-(Thiophen-3-ylethynyl)furo[3,2-c]pyridin-2-yl}methylene]thiazolidine-2,4-dione]	24 nM	638 nM	92 nM	8 nM
Cc1cc(-c2cncc3cc(/C=C4\SC(=O)NC4=O)oc23)ccc1S(=O)(=O)N1CCOCC1 [Example 307, (Z)-5-([7-{3-Methyl-4-(morpholinosulfonyl)phenyl}furo[3,2-c]pyridin-2-yl]methylene)thiazolidine-2,4-dione]	15 nM	1940 nM	52 nM	14 nM
O=C1NC(=S)S/C1=C\c1cc2cncc(C#CC3CC3)c2o1 [Example 475, (Z)-5-[{7-(Cyclopropylethynyl)furo[3,2-c]pyridin-2-yl}methylene]-2-thioxothiazolidin-4-one]	10 nM	> 10000 nM	> 10000 nM	68 nM

Continued, values first:

IC50 (PI3Kγ (p120γ)(h))	IC50 (PI3K β (p110β/p85α)(h))	IC50 (PI3Kδ (p110δ/p85α)(h))	IC50 (PI3Kα (p110α/p85α)(h))	SMILES
28 nM	1400 nM	2500 nM	16 nM	O=C1NC(=O)/C(=C/c2cc3cncc(-c4ccc(S(=O)(=O)NCCO)cc4)c3o2)S1 [Example 263, (Z)-4-[2-{(2,4-Dioxothiazolidin-5-ylidene)methyl}furo[3,2-c]pyridin-7-yl]-N-(2-hydroxyethyl)benzenesulfonamide]
5 nM	3570 nM	6250 nM	3 nM	COc1ccc(-c2cncc3cc(/C=C4\SC(=O)NC4=O)oc23)cc1C(F)(F)F [Example 90, (Z)-5-([7-{4-Methoxy-3-(trifluoromethyl)phenyl}furo[3,2-c]pyridin-2-yl]methylene)thiazolidine-2,4-dione]
12 nM	> 10000 nM	> 10000 nM	58 nM	O=C1NC(=O)/C(=C/c2cc3cncc(C#Cc4ccccc4)c3o2)S1 [Example 125, (Z)-5-[{7-(Phenylethynyl)furo[3,2-c]pyridin-2-yl}methylene]thiazolidine-2,4-dione]
10 nM	> 10000 nM	> 10000 nM	5 nM	O=C1NC(=S)S/C1=C\c1cc2cncc(-c3ccc4c(c3)CCO4)c2o1 [Example 187, (Z)-5-[{7-(2,3-Dihydrobenzofuran-5-yl)furo[3,2-c]pyridin-2-yl}methylene]-2-thioxothiazolidin-4-one]
12 nM	> 10000 nM	> 10000 nM	5 nM	CCOc1ccc(-c2cncc3cc(/C=C4\SC(=O)NC4=O)oc23)cc1Cl [Example 51, (Z)-5-[{7-(3-Chloro-4-ethoxyphenyl)furo[3,2-c]pyridin-2-yl}methylene]thiazolidine-2,4-dione]
